The test system of data set [1] is NMDAR-mediated component of the EPSC. Briefly: Evoked EPSCs in hippocampal autapses, whole-cell recording. The class given is cell-based, rat.
A further data set concerns LTP in hippocampal CA1. Description: LTP in hippocampal slices by field recordings. The data set is classed as cell-based. The settings on record: 10 μM, high-frequency burst, rat hippocampal slices.
Data set [2] deals with GluN1(N616R)/GluN2A channels (Homo sapiens, UniProt Q05586+Q12879, N616R). Briefly: Oocyte voltage clamp, redox effect on memantine binding site mutant. The data set is classed as cell-based. The note with it: for effect of GluN1(N616R) mutation on inhibition of current via S-nitrosylation: 200 µM. As to the method: (§1) Two-electrode voltage clamp recordings at −60 or −70 mV were made on oocytes in frog Ringer’s solution two to seven days after injection of NMDAR subunits. Recordings were performed with an Oocyte Clamp OC-725b amplifier (Warner Instrument Corporation, Hamden, CT) using MacLab version 3.5 software (AD Instruments, Milford, MA) at room temperature. […] Both electrodes were filled with 3 M KCl. A solution containing 90 mM NaCl, 1 mM KCl, 10 mM HEPES, 1.5 mM BaCl2, and 10–100 μM glycine, pH 7.5 was used to continuously superfuse the oocytes. Barium, rather than calcium, was used as the divalent cation in order to minimize secondary activation of Ca^2+-activated Cl^− current. In some experiments, 1.2 mM MgCl2 was added to the bath solution. Drugs were dissolved in frog Ringer’s solution and applied by superfusion at a 2 ml/min flow rate. In some cases, to achieve relatively rapid solution exchange, we used an array of pipettes similar to the “sewer pipe” system used in patch-clamp recording. Perfusion artifacts were digitally removed from the traces.
Chain of GluN1(N616R)/GluN2A channels (Q12879 23-1464, other chains not shown): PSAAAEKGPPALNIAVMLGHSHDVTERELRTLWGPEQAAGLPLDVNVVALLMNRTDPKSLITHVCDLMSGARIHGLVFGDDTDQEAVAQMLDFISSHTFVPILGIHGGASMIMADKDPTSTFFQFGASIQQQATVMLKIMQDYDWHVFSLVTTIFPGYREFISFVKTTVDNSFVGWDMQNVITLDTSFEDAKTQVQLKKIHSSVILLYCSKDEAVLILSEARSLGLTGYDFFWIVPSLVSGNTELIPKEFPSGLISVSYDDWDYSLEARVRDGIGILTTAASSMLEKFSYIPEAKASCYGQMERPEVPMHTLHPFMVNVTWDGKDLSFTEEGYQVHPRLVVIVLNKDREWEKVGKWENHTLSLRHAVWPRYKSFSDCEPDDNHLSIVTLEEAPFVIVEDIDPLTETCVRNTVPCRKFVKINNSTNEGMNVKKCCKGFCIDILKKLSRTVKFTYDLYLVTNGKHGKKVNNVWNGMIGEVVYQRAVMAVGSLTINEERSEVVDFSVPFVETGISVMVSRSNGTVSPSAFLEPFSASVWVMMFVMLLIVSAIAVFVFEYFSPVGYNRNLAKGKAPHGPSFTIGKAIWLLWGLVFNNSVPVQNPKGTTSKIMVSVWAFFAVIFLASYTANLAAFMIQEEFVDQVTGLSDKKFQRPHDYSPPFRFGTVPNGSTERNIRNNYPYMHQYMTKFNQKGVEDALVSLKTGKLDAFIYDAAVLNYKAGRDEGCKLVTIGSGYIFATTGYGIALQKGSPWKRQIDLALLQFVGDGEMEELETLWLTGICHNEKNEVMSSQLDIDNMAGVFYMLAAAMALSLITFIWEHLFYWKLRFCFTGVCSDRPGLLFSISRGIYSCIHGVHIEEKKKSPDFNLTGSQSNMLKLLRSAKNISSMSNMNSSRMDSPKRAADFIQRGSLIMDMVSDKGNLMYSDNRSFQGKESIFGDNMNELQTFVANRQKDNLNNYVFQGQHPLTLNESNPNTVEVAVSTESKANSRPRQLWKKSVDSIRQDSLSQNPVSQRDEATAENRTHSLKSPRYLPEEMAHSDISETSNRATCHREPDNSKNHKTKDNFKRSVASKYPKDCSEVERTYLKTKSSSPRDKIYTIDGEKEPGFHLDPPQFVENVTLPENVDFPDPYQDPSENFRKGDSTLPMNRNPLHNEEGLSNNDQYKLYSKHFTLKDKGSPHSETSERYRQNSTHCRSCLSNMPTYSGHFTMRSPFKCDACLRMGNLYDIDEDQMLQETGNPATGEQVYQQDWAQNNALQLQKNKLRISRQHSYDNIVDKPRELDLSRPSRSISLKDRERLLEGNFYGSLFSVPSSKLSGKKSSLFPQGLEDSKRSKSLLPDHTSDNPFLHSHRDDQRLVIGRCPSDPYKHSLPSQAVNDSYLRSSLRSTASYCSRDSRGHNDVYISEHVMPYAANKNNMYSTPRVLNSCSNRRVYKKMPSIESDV
Mutant NMDAR subunits were prepared using the Chameleon^TM double-stranded site-directed mutagenesis kit (Stratagene) according to the manufacturer’s instructions. The entire coding region was sequenced to verify the mutation.

Data set [3] deals with recombinant GluN1/GluN2A receptors (Homo sapiens, UniProt Q05586+Q12879). Briefly: Two-electrode voltage clamp of oocytes, channel block of NMDA-induced current. The settings on record: for steady-state channel block of NMDA current: 10 μM (equimolar), Vh −70 mV; for IC50: steady-state, short-term drug addition, holding potential −70 mV, nominal absence of extracellular Mg2+, read-out: IC50 of inhibiting NMDA-induced current. The data set is classed as cell-based. As to the method:
[…] Recordings were performed with an Oocyte Clamp OC-725b amplifier (Warner Instrument Corporation, Hamden, CT) using MacLab version 3.5 software (AD Instruments, Milford, MA) at room temperature. […] Both electrodes were filled with 3 M KCl. A solution containing 90 mM NaCl, 1 mM KCl, 10 mM HEPES, 1.5 mM BaCl2, and 10–100 μM glycine, pH 7.5 was used to continuously superfuse the oocytes. Barium, rather than calcium, was used as the divalent cation in order to minimize secondary activation of Ca^2+-activated Cl^− current. In some experiments, 1.2 mM MgCl2 was added to the bath solution. Drugs were dissolved in frog Ringer’s solution and applied by superfusion at a 2 ml/min flow rate. In some cases, to achieve relatively rapid solution exchange, we used an array of pipettes similar to the “sewer pipe” system used in patch-clamp recording. Perfusion artifacts were digitally removed from the traces.

The next data set has as its system developing cerebrocortex. Briefly: Cerebrocortical apoptosis by TUNEL in neonatal rats. The class given is in vivo. The note with it: P7 rat pups, loading dose, 24 h later.
In data set [4] the test system is spontaneously hypertensive rats (SHR). Description: Neurological/behavioral score after tMCAO/R. The data set is classed as in vivo, rat. The note with it: same doses as histology (memantine 90.3, NitroMemantine 65.8 μmol/kg loading), 24-h post stroke. An excerpt:
Each adult animal underwent a neurologic evaluation[51] immediately after filament removal and again 1 day after reperfusion (prior to sacrifice). Each animal was assigned an objective behavioral score of 0–4: 0 representing no observable neurological deficit; 1 failure to extend the left forepaw; 2 circling to the left; 3 falling to the left; 4 cannot walk spontaneously. The scores obtained 24-h post stroke were averaged for each time point of each treatment group and presented as the neurological score.

The test system of another data set is GluN1/GluN2A NMDARs. Briefly: Oocyte voltage clamp, redox (S-nitrosylation) mediated inhibition of NMDA-evoked current. The class given is cell-based. How it is done:
as §1

The test system of the next data set is SNO-GluN1 and SNO-Drp1. Description: Biotin switch assay of S-nitrosylated proteins in brain after stroke. The class given is in vivo, rat. The settings on record: SHR, loading dose 2-h post occlusion, sacrificed 90 min thereafter.
In data set [5] the test system is spontaneously hypertensive rats (SHR). Description: tMCAO/R focal cerebral ischemia, infarct size by TTC staining. The class given is in vivo, rat. The note with it: for histological protection (infarct size) at equimolar dose: MFD of NitroMemantine (65.8 μmol/kg loading, 3.29 μmol/kg maintenance); for histological protection (infarct, TTC staining): loading i.p. 2-h post occlusion: memantine 90.3 μmol/kg, NitroMemantine 65.8 μmol/kg, maintenance 12 h later, sacrificed at 24 h. As to the method:
Because of their known propensity to stroke, similar to human patients with hypertension, we used spontaneous hypertensive rats (SHR, Harlan) to induce tMCAO/R with the intraluminal suture method. Male 200–300 g SHR were anesthetized with 3% isoflurane in 30% oxygen/70% nitrous oxide using an anesthetic vaporizer and flowmeter. Body temperature was maintained at 37 °C with a homeothermic temperature system. A laser Doppler monitor was used to monitor relative cerebral blood flow (rCBF) during the surgical procedure and recovery. rCBF measurements were made immediately after anesthesia, after occlusion of the MCA, just before, and immediately after withdrawal of the suture to initiate reperfusion. To initiate a stroke, a midline incision was made to expose the right common carotid, external carotid, and internal carotid arteries. The occipital artery branches of the external carotid artery were isolated and along with the terminal lingual and maxillary artery branches coagulated with an electrocautery unit. The internal carotid artery was isolated and carefully separated from the adjacent vagus nerve. The pterygopalatine artery was ligated close to its origin, two loosely tied sutures placed around the external carotid artery stump, and a microaneurysm clip applied to the external carotid artery near its bifurcation with the internal carotid artery. A small puncture opening was made in the external carotid artery, a monofilament (intraluminal suture) inserted through the opening, and the sutures tightened around the lumen containing the filament. The microaneurysm clip was removed from the external carotid artery and the monofilament gently advanced from the lumen of the external carotid artery into the internal carotid artery for a distance of ~19 to 20 mm beyond the bifurcation of the common carotid artery until the blood flow dropped (≥80% reduction by rCBF measurement). The suture around the external carotid artery stump was tightened to prevent bleeding. After 2 h, sutures were removed, the filament withdrawn and the incision sutured removed, with rCBF recovering at least 75% at reperfusion. Just prior to reperfusion, rats were administered memantine, NitroMemantine, or memantine-OH via i.p. injection in saline vehicle or an equivalent volume of vehicle alone. […] Maintenance doses (4.63 μmol/kg of memantine and 3.29 μmol/kg of NitroMemantine, equivalent to 1 mg/kg or each) were administered 12 h after the loading dose. […] In subsequent experiments, equimolar memantine, NitroMemantine YQW-036, or memantine-OH was used using the lower NitroMemantine dose described above. The rodents were sacrificed 24-h post occlusion, and the size of brain infarct was evaluated histologically by 2,3,5-triphenyl-2H-tetrazolium chloride (TTC) staining.

The test system is the same in data set [6]. Description: Morris water maze. The class given is in vivo, rat. The settings on record: neuroprotective doses: 65.8 μmol/kg loading i.p., 3.29 μmol/kg every 12 h. How it is done: Adult male spontaneously hypertensive rats (SHR) were treated with either PBS or NitroMemantine (65.8 μmol/kg loading dose, i.p., followed by a 3.29 μmol/kg maintenance dose every 12 h). Each group was comprised of five rats (n = 5). Treatment for both groups commenced 48 h prior to the first day of testing. Both the treatment and water-maze testing were conducted in a blinded fashion. The water maze consisted of a circular pool 150 cm in diameter and 85 cm deep. The pool was filled to cover a moveable platform, black in color, by 1 cm of water. The water was made opaque via the addition of black paint and maintained at room temperature (20–23 °C) for the duration of the five days of testing. A white pool with black water allowed the video camera to successfully track the white rats with maximum contrast. On day 1, the rats were placed in the pool with no platform for 60 s of acclimation. Days 2 through 5 were used for testing. Starting on day 2 and continuing to day 5, rats were trained for 24 total trials (six trials/day) to locate and reach the submerged platform. The platform was kept in the same location for all trials in each session (day), but changed from session to session in a pre-determined order, yielding four unique locations in all. In addition, there were four possible release locations (the four cardinal compass directions at the pool’s perimeter). […]

For data set [7] the test system is unchanged. Briefly: Physiological parameters during stroke. The class given is in vivo, rat. The note with it: loading dose, n = 18 SHR.
A short description of the next data set: Aqueous solubility. The class given is physicochemical.
For data set [8], the target named is NMDA-evoked currents in primary rat cortical neurons (Rattus norvegicus, UniProt P35439). Briefly: Whole-cell patch clamp of NMDA-evoked currents in primary rat cortical neurons. The data set is classed as cell-based. The settings on record: 5 μM, −75 mV and +30 mV.
On the set-up of data set [9]: method as in PMID 19915593. The settings on record: memantine 90.3 μmol/kg loading, 4.63 μmol/kg maintenance; cited from earlier work.
The test system of data set [10] is NMDAR-operated ion channel. The settings on record: cited from earlier work.

Structures are written as SMILES. Like-named read-outs stand apart in the source and are kept apart here.

Chain of recombinant GluN1/GluN2A receptors (Q12879 23-1464, other chains not shown): as above
Method for SNO-GluN1 and SNO-Drp1: Analysis of S-nitrosylation of NMDA receptors in rat brain was performed by the biotin switch assay, as previously described[48][49]. Free thiols in tissue lysates were blocked with methyl-methanethiosulfonate. Proteins were then precipitated with acetone and resuspended in HEN buffer (250 mM HEPES, pH 7.4, 1 mM EDTA, 0.1 mM neocuproine) plus 1% sodium dodecyl sulfate. Ascorbate was used to selectively reduce nitrosothiols in order to reform free thiol groups, which were subsequently biotinylated using 1 mM biotin-HPDP (Pierce, Rockford, IL). Parallel reactions were performed without ascorbate as a control to ensure specificity of the biotinylated bands. Biotinylated proteins were captured on streptavidin-agarose beads and analyzed by immunoblotting.

As for `N[C@H](CCCP(=O)(O)O)C(=O)O` [D-AP5, (2R)-amino-5-phosphonopentanoate], in [1] (50 μM, control), the “block of NMDAR component of the EPSC” value was “completely blocked”.
Regarding `C[C@]12N[C@H](Cc3ccccc31)c1ccccc12` [MK-801, reference compound], the “effect on LTP induction” value in the data set on LTP in hippocampal CA1 is reported as “completely inhibited LTP induction”.
Take `N[C@@H](CSN=O)C(=O)O` [SNOC, S-nitrosocysteine, reference compound]: the “effect of GluN1(N616R) mutation on inhibition of current via S-nitrosylation” value in [2] is “did not affect inhibition”.
For the compound `CC12CC3(C)CC(N)(C1)CC(O[N+](=O)[O-])(C2)C3` [YQW-035], in [3], the “steady-state channel block of NMDA current” value (from here on “steady-state channel block”) is “less channel block than memantine but more than amantadine” and the IC50 amounted to 6300 nM. Moreover, the “effect of GluN1(N616R) mutation on inhibition of current via S-nitrosylation” value in data set [2] is recorded as “eliminated inhibition”.
As for `CCC12CC3(N)CC(CC)(C1)CC(O[N+](=O)[O-])(C3)C2` [YQW-036], the “cerebrocortical neuronal apoptosis (TUNEL)” value in the data set on developing cerebrocortex was “do not cause”. For the same compound, in [4], the neurological/behavioral score result is “showed a protective effect”. Also, the “change of EPSC blockade with repeated electrical stimulation (pulses 1–10)” value in [1] (10 μM) was “did not significantly increase”. The “block of NMDAR-mediated component of the EPSC” value in data set [1] (10 μM, 20 μM CNQX present) is given as “blocked to a lesser extent”. Moreover, in data set [3], the “steady-state channel block” value is on record as “approximately the same degree as memantine” and the IC50 is 2400 nM. In addition, in data set [3] (10 µM, 1.2 mM Mg2+, NMDA 100 µM, holding potential −40 mV), the “inhibition of NMDA-evoked current in the presence of extracellular Mg2+” value is reported as “inhibited”. Moreover, in [2] (100 μM), the “redox-mediated activity on GluN1(N616R) mutant” value is recorded as “abrogated”. In addition, the “inhibition of NMDA-evoked current under conditions used to observe S-nitrosylation” value in the data set on GluN1/GluN2A NMDARs (100 μM, Vh −60 mV) is “inhibited NMDA-evoked current”. In addition, the “prolonged inhibitory effect after prior MTSEA or mutation of redox-active cysteines” value in the data set with GluN1/GluN2A NMDARs (prior addition of MTSEA or mutation of redox-active cysteines in the NMDAR) was “largely abrogated”. Besides, the “effect on LTP induction” value in the data set with LTP in hippocampal CA1 is “did not inhibit LTP”. For the same compound, in the data set on SNO-GluN1 and SNO-Drp1, the “S-nitrosylation of Drp1 (SNO-Drp1)” value was “not significantly affected” and the “S-nitrosylation of the GluN1 subunit (SNO-GluN1), ipsilateral to stroke” value is reported as “significant increase”. For the same compound, in data set [5], the “histological protection (infarct size) at equimolar dose” value is given as “significant benefit” and the “histological protection (infarct, TTC staining)” value is “protected to a greater extent than memantine”. In addition, the “histological protection (infarct, TTC staining)” value in data set [5] (listed as NitroMemantine) was “offer histological protection”. Also, the “Morris water maze performance” value in data set [6] was “not affected”. Moreover, the “physiological parameters (temperatures, blood pressure, metabolic panel)” value in [7] is given as “not significantly affected”. In addition, in the data set “Aqueous solubility”, the aqueous solubility result is “lower solubility in aqueous solution”. In addition, in [8], the “blockade of NMDA-evoked current, voltage dependence” value is “approximately equivalent degree of blockade at both –75 mV and less blockade at +30 mV”.
With `CCCC12CC3(N)CC(CCC)(C1)CC(O[N+](=O)[O-])(C3)C2` [YQW-037], in “Aqueous solubility”, the aqueous solubility entry is recorded as “cannot be dissolved in aqueous solutions”.
On to `NC12CC3CC(CC(C3)C1)C2` [amantadine, reference compound], for which the “steady-state channel block” value in data set [3] is recorded as “inhibited less NMDA current at steady state than equimolar memantine”.
As to `CC12CC3CC(C)(C1)CC(N)(C3)C2` [memantine], in the data set on developing cerebrocortex, the “cerebrocortical neuronal apoptosis (TUNEL)” value is “do not cause”. Moreover, in data set [1], the “block of NMDAR-mediated component of the EPSC” value was “blocks neurotransmission to a greater degree than NitroMemantine” and the “change of EPSC blockade with repeated electrical stimulation (pulses 1–10)” value is “use-dependent”. Further, in data set [5], the “histological protection (infarct size) at equimolar dose” value is listed as “no significant protection” and the “histological protection (infarct, TTC staining)” value is on record as “offer histological protection”. The “concentration at the mouth of the NMDAR-associated ion channel” value in [9] was 5 to 10 µM. Moreover, in data set [7], the “physiological parameters (temperatures, blood pressure, metabolic panel)” value was “not significantly affected”. For the same compound, in data set [10], the IC50 was 500 to 1000 nM. Besides, in data set [8], the “blockade of NMDA-evoked current, voltage dependence” value is “approximately equivalent degree of blockade at both –75 mV and less blockade at +30 mV”.

(Values after article PMC4609936, “Pharmacologically targeted NMDA receptor antagonism by NitroMemantine for cerebrovascular disease” (Scientific Reports, 2015).)
